Measurements published in US20060235222A1, “Indole-derivative modulators of steroid hormone nuclear receptors” (ELI LILLY AND COMPANY, priority 2003, published 2006).

Experiments:
human MR = biological target: T1, human MR (Homo sapiens, UniProt P08235); assay: Mineralocorticoid Receptor Binding Assay (Method 1), [3H]-aldosterone competition; details: 0.5 nM [3H]-aldosterone, human MR expressed in Sf9 cells
T1 construct: The full length human MR gene is cloned from a human kidney or human brain cDNA library; inferred from own knowledge of the pAcHLT vector (N); made in house; host or cells: Sf9 insect cells (baculovirus)
T1 sequence (P08235 1-984): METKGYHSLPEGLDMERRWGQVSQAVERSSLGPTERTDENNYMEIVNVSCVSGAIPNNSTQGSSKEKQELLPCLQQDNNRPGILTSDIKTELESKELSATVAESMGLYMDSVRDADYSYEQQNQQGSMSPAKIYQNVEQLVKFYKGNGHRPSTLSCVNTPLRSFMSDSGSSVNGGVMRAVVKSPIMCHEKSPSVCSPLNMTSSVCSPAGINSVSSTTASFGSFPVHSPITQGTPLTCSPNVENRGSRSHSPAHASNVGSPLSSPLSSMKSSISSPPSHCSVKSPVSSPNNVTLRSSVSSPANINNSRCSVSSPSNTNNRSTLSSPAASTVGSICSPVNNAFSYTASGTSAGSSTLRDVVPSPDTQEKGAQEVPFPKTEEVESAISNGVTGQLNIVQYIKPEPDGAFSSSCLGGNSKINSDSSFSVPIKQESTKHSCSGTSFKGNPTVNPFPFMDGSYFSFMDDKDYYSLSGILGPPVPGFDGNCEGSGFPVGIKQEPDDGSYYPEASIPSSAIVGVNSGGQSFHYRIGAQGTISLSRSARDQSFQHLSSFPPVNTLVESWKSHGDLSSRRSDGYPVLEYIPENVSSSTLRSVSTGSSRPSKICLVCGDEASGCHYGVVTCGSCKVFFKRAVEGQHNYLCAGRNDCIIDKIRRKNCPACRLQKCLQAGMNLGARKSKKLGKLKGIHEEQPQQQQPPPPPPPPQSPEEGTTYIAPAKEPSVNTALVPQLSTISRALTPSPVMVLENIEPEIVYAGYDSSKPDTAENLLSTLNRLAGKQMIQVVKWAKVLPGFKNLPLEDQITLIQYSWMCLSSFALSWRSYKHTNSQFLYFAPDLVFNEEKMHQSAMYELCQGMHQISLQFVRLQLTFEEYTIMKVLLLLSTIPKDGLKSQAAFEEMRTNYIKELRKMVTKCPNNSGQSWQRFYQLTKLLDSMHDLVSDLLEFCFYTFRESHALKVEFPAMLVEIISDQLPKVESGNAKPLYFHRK
Procedure: Mineralocorticoid Receptor Binding Assay (Method 1):
The full length human MR gene is cloned from a human kidney or human brain cDNA library. […] The PCR reaction is performed in a final volume of 50 μl containing about 1 μl of a 50× stock solution of polymerase; about 1 μl of a 50× stock solution of dNTP; about 5 μl of an appropriate PCR buffer; about 1 μl of each primer; about 5 μl of a H. kidney or H. brain cDNA library; and about 36 μl of water. The reaction is allowed to denature for about 30 seconds at 95 degrees Celsius, anneal for about 30 seconds at 55 degrees Celsius, and extend for about 5 minutes at 72 degrees Celsius, the sequence being repeated for a total of about 35 cycles. […] To extract the cDNA product from the agarose gel, the QIAEX II Gel Extraction protocol (QIAGEN, Inc.) is employed according to the manufacturer's instructions. Following extraction, the MR cDNA is cloned into an appropriate cloning vector (Zero Blunt TOPO PCR Cloning Kit (Invitrogen, Inc.) and a pAcHLT-baculovirus transfer vector (B.D./Pharminogen), then expressed in SF9 insect cells, essentially according to manufacturer's instructions. Sf9 cells are grown at a scale where gram quantity cell pellets are obtained for subsequent use in the MR binding assay. Harvested cell pellets are lysed by repeated freeze-thaw cycles (about 4) in a suitable lysis buffer then centrifuged at about 1×10^3 G (with the supernatant being saved for future assays).
MR binding assays are performed in a final total volume of about 250 μl containing about 20-25 μg of protein and 0.5 nM of [^3H]-aldosterone plus varying concentrations of test compound or vehicle. The assay binding buffer consists of 30 mM sodium molybdate, 30 mM of TRIS-HCl, 5 mM sodium phosphate, 5 mM sodium pyrophosphate, and about 10% glycerol, pH=7.5.
Incubations are carried out at 4 degrees Celsius with shaking for about 16 hours. 200 μl aliquots of each incubation are filtered onto Millipore HA 0.45 micron 96-well filter plates, pre-moistened with cold 30 mM TRIS-HCl. The filter plates are suctioned dry with vacuum and immediately washed 3× with cold 30 mM TRIS-HCl. The plates are then punched out and the amount of receptor-ligand complex is determined by liquid scintillation counting using 4 ml of Ready Protein Plus™ liquid scintillation cocktail.

glucocorticoid receptor = biological target: T2, glucocorticoid receptor (Homo sapiens, UniProt P04150); assay: Glucocorticoid Receptor Binding Assay (Method 1), [3H]-dexamethasone competition, A549 cell extract; details: 1.86 nM [3H]-dexamethasone, read-out: GR Ki (nM) Method 1
T2 construct: containing 50-200 ug of A549 cell extract and 1.86 nM; host or cells: A549 human lung epithelial cells
T2 sequence (P04150 1-777): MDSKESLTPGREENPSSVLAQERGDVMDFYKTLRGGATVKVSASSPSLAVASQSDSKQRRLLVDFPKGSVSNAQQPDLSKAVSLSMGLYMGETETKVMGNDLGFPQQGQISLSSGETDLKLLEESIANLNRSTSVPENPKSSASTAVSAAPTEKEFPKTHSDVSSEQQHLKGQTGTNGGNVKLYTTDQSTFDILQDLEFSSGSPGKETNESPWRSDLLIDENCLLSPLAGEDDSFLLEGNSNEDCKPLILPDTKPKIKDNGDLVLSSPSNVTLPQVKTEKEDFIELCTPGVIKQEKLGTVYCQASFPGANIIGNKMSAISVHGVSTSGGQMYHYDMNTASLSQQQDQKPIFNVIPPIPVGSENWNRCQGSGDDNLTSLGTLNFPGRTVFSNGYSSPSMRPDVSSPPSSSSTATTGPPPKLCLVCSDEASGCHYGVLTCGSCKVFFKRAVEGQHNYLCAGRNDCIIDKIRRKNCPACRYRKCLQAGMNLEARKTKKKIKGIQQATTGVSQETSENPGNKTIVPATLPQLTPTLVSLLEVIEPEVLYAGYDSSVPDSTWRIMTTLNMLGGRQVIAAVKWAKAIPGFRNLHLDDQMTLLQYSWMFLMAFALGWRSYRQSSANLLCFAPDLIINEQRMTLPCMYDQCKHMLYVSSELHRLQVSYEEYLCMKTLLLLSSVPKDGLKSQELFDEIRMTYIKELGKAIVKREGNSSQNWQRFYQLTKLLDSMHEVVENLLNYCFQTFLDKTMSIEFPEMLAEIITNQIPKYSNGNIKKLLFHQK
Procedure: Glucocorticoid Receptor Binding Assay (Method 1):
A549 human lung epithelial cells (ATCC) are grown at a scale where gram quantity cell pellets are obtained. Harvested cell pellets are washed twice in cold phosphate buffered saline, centrifuged, and resuspended in cold assay binding buffer. The assay binding buffer consists of 10% glycerol, 50 mM Tris-HCl (pH7.2), 75 mM sodium chloride, 1.5 mM magnesium chloride, 1.5 mM EDTA, and 10 mM sodium molybdate. Cell suspensions were lysed via sonication, centrifuged, and the “extract” supernatant is snap frozen and stored at −80 C until needed.
Incubations are carried out at 4 degrees Celsius for 16 hours. After incubation, 70 ul of 3× dextran-coated charcoal solution is added to each reaction, mixed, and incubated for 8 minutes at RT. 3×-dextran-coated charcoal solution consists of 250 ml assay binding buffer, 3.75 g Norit A charcoal (Sigma), and 1.25 g dextran T-70 (Amersham). Charcoal/unbound radioligand complexes are removed by centrifugation of the plate and 140 ul of supernatant from each well is transferred to another 96 well Optiplate (Packard Instruments). 200 ul of Microscint-20 scinillant (Packard Instruments) is added to each well and amount of receptor bound radioligand is determined using Packard Instruments TopCount instrument.

Row | SMILES | Ki (human MR) [nM] | Ki (glucocorticoid receptor) [nM]
1 | CC(c1ccc(F)cc1)(c1c[nH]c2c(NS(C)(=O)=O)cccc12)C1CC1 (centres unmarked) [Example 5, N-{3-[1-Cyclopropyl-1-(4-fluoro-phenyl)-ethyl]-1H-indol-7-yl}-methanesulfonamide] | < 500 | < 500
2 | CCC(CC)(c1cc2ccccc2s1)c1c[nH]c2c(NS(C)(=O)=O)cccc12 [Example 6, N-[3-(1-Benzo[b]thiophen-2-yl-1-ethyl-propyl)-1H-indol-7-yl]-methanesulfonamide] | < 500 | < 500
3 | CCCC(C)(c1ccc(F)cc1)c1c[nH]c2c(NS(C)(=O)=O)cccc12 (centres unmarked) [Example 7, N-{3-[1-(4-Fluoro-phenyl)-1-methyl-butyl]-1H-indol-7-yl}-methanesulfonamide] | < 500 | < 500
4 | CCC(CC)(c1ccc(SC)cc1)c1c[nH]c2c(NS(C)(=O)=O)cccc12 [Example 8, N-{3-[1-Ethyl-1-(4-methylsulfanyl-phenyl)-propyl]-1H-indol-7-yl}-methanesulfonamide] | < 500 | < 500
5 | CC(C)(c1cc2ccccc2o1)c1c[nH]c2c(NS(C)(=O)=O)cccc12 [Example 9, N-[3-(1-Benzofuran-2-yl-1-methyl-ethyl)-1H-indol-7-yl]-methanesulfonamide] | < 500 | < 500
6 | CCCC(C)(c1ccsc1)c1c[nH]c2c(NS(C)(=O)=O)cccc12 (centres unmarked) [Example 10, N-[3-(1-Methyl-1-thiophen-3-yl-butyl)-1H-indol-7-yl]-methanesulfonamide] | < 500 | < 500
7 | CCC(CC)(c1cc2cc(Cl)ccc2o1)c1c[nH]c2c(NS(C)(=O)=O)cccc12 [Example 11, N-{3-[1-(5-Chloro-benzofuran-2-yl)-1-ethyl-propyl]-1H-indol-7-yl}-methanesulfonamide] | < 500 | < 10000
8 | Cc1ccc(C(C)(C)c2c[nH]c3c(NS(C)(=O)=O)cccc23)cc1 [Example 12, N-[3-(1-Methyl-1-p-tolyl-ethyl)-1H-indol-7-yl]-methanesulfonamide] | < 500 | < 500
9 | CC(C)(c1cc2ccccc2s1)c1c[nH]c2c(NS(C)(=O)=O)cccc12 [Example 13, N-[3-(1-Benzo[b]thiophen-2-yl-1-methyl-ethyl)-1H-indol-7-yl]-methanesulfonamide] | < 500 | < 1000
10 | CC(C)(c1csc2ccccc12)c1c[nH]c2c(NS(C)(=O)=O)cccc12 [Example 14, N-[3-(1-Benzo[b]thiophen-3-yl-1-methyl-ethyl)-1H-indol-7-yl]-methanesulfonamide] | < 500 | < 500
11 | CCC(CC)(c1cccs1)c1c[nH]c2c(NS(C)(=O)=O)cccc12 [Example 15, N-[3-(1-Ethyl-1-thiophen-2-yl-propyl)-1H-indol-7-yl]-methanesulfonamide] | < 500 | < 500
12 | CS(=O)(=O)Nc1cccc2c(C3(c4ccccc4)CCCCC3)c[nH]c12 [Example 16, N-[3-(1-Phenylcyclohexyl)-1H-indol-7-yl]-methanesulfonamide] | < 500 | < 1000
13 | CCC(CC)(c1ccc(OCc2ccccc2)cc1)c1c[nH]c2c(NS(C)(=O)=O)cccc12 [Example 17, N-{3-[1-(4-Benzyloxy-phenyl)-1-ethyl-propyl]-1H-indol-7-yl}-methanesulfonamide] | < 500 | < 500
14 | CCC(CC)(c1ccc(O)cc1)c1c[nH]c2c(NS(C)(=O)=O)cccc12 [Example 18, N-{3-[1-Ethyl-1-(4-hydroxy-phenyl)-propyl]-1H-indol-7-yl}-methanesulfonamide] | < 500 | < 500
15 | CCCC(C)(c1ccc(OC)cc1)c1c[nH]c2c(CC)cccc12 (centres unmarked) [Example 19, 7-Ethyl-3-[1-(4-methoxy-phenyl)-1-methyl-butyl]-1H-indole] | < 500 | < 500
16 | CCCC(C)(c1ccc(OC)cc1)c1c[nH]c2c(C)cccc12 (centres unmarked) [Example 20, 3-[1-(4-Methoxy-phenyl)-1-methyl-butyl]-7-methyl-1H-indole] | < 500 | < 500
17 | CS(=O)(=O)Nc1cccc2c(C3(c4ccccc4)CCCC3)c[nH]c12 [Example 21, N-[3-(1-Phenyl-cyclopentyl)-1H-indole-7-yl]-methanesulfonamide] | < 500 | < 500
18 | CC(C)(c1ccc2c(c1)CCO2)c1c[nH]c2c(NS(C)(=O)=O)cccc12 [Example 22, N-{3-[1-(2,3-Dihydro-benzofuran-5-yl)-1-methyl-ethyl]-1H-indol-7-yl}-methanesulfonamide] | < 500 | < 500
19 | CCCCC(C)(c1ccc(OC)cc1)c1c[nH]c2c(C)cccc12 (centres unmarked) [Example 23, 3-[1-(4-Methoxy-phenyl)-1-methyl-pentyl]-7-methyl-1H-indole] | < 500 | < 500
